Measured values: ChEMBL document CHEMBL5370643, “Discovery of MK-1468: A Potent, Kinome-Selective, Brain-Penetrant Amidoisoquinoline LRRK2 Inhibitor for the Potential Treatment of Parkinson's Disease” (J Med Chem, 2023)
≈ marks a conversion by molar mass, not a printed value.

Columns and labels:
[1] = Toxicity in Wistar-Han rat assessed as effect on spontaneous locomotor activity at 60 mg/kg, po administered as single dose and measured upto 24 hrs by telemetric analysis; assay type: organism-based; conditions: in vivo
[2] = Intrinsic clearance in Wistar-Han rat at 3 mg/kg, iv measured after 24 hrs by LC-MS/MS analysis; assay type: ADME, organism-based; conditions: in vivo
[3] = Toxicity in Wistar-Han rat assessed as micronucleus induction in bone marrow at 40 to 750 mg/kg, po administered once daily for 7 days by micronucleus test; assay type: organism-based; conditions: in vivo, 168 h, dose 40-750 mg/kg, time 7 day
rat Mdrl1 P-gp = experiment: Efflux ratio of apparent permeability across basolateral to apical over apical to basolateral side in MDCK cells transfected with rat Mdrl1 P-gp incubated for 3 hrs by LC-MS/MS analysis; conditions: dog, MDCK-MDR1
[4] = Kinetic solubility of compound in FaSSIF at pH 6.5 measured after 24 hrs by UPLC/DAD analysis; assay type: physicochemical; conditions: read-out: Kinetic_solubility
[5] = Protein binding in rat plasma incubated for 4 hrs by equilibrium dialysis method; assay type: ADME, cell-free; conditions: read-out: PPB (converted)
[6] = Unbound drug concentration in guinea pig plasma at 5 mg/kg, iv administered continuously for 20 mins; assay type: ADME, organism-based, Cavia porcellus; conditions: in vivo
hERG = hERG (Homo sapiens, UniProt Q12809); experiment: Inhibition of hERG expressed in CHO cells at 10 uM by QPatch voltage clamp assay relative to control; assay type: toxicity, cell-based; conditions: CHO cells expressing hERG
[7] = Total clearance in Wistar-Han rat at 3 mg/kg, iv measured after 24 hrs by LC-MS/MS analysis; assay type: ADME, organism-based; conditions: in vivo
[8] = Mutagenicity in Salmonella typhimurium TA1535 at 30 to 5000 ug/plate incubated for 48 hrs in presence of Wistar-Han rat S9 fraction by Ames test; assay type: toxicity, subcellular; conditions: salmonella enterica subsp. enterica serovar typhimurium, s9, 48 h
[9] = In vivo inhibition of LRRK2 in rhesus monkey assessed as reduction in Ser935 phosphorylation in blood PBMC at 100 to 800 mg/kg, po administered once daily for 7 days; assay type: functional, Macaca mulatta; conditions: dose 100-800 mg/kg, time 7 day
[10] = MRT in Beagle dog at 0.5 mg/kg, iv measured after 24 hrs by LC-MS/MS analysis; assay type: ADME, organism-based, Canis lupus familiaris; conditions: in vivo
[11] = Total clearance in rhesus monkey at 3 mg/kg, iv measured after 24 hrs by LC-MS/MS analysis; assay type: ADME, organism-based, Macaca mulatta; conditions: in vivo
[12] = Toxicity in rhesus monkey assessed as tolerance at 100 to 800 mg/kg, po administered once daily for 7 days; assay type: organism-based, Macaca mulatta; conditions: in vivo, 168 h, dose 100-800 mg/kg, time 7 day
[13] = biological target: KCNQ1/KCNE1 (IKs, Kv7.1/MinK) (Homo sapiens, UniProt P15382+P51787); experiment: Inhibition of human KCNQ1/KCNE1 expressed in HEK293 cells at 30 uM by QPatch voltage clamp assay relative to control; assay type: cell-based; conditions: HEK293 cells expressing human KCNQ1/KCNE1
[14] = Cmax in Wistar-Han rat at 48 mg administered twice a day by LC-MS/MS analysis; assay type: ADME; set-up: dose 48 mg; conditions: in vivo
Rattus norvegicus = experiment: In vivo inhibition of LRRK2 in po dosed Wistar-Han rat assessed as reduction in Ser935 phosphorylation in stratium measured after 2 hrs; assay type: functional, organism-based; conditions: dose 1-100 mg/kg
[15] = AUC in rhesus monkey at 100 mg/kg, po administered once daily for 7 days; assay type: ADME, organism-based, Macaca mulatta; set-up: dose 100 mg/kg, time 7 day, route po; conditions: in vivo
[16] = Mutagenicity in Salmonella typhimurium TA100 at 30 to 5000 ug/plate incubated for 48 hrs in absence of Wistar-Han rat S9 fraction by Ames test; assay type: toxicity; conditions: salmonella enterica subsp. enterica serovar typhimurium, s9, 48 h
[17] = Intrinsic clearance in rhesus monkey at 3 mg/kg, iv measured after 24 hrs by LC-MS/MS analysis; assay type: ADME, organism-based, Macaca mulatta; conditions: in vivo
[18] = Protein binding in human plasma incubated for 4 hrs by equilibrium dialysis method; assay type: ADME, cell-free; conditions: read-out: PPB (converted)
[19] = Unbound drug concentration in guinea pig plasma at 15 mg/kg, iv administered continuously for 20 mins; assay type: ADME, organism-based, Cavia porcellus; conditions: in vivo
[20] = Toxicity in Wistar-Han rat assessed as degeneration of seminiferous epithelium in testes at 750 mg/kg, po administered once daily for 7 days; assay type: organism-based; conditions: in vivo, 168 h, time 7 day
[21] = biological target: Leucine-rich repeat serine/threonine-protein kinase 2 (Homo sapiens) (UniProt Q5S007); experiment: Inhibition of LRRK2 in human PBMC using LRRKtide peptide as substrate assessed as Ser935 dephosphorylation preincubated with compound for 15 mins followed by substrate addition and measured after 90 mins in presence of ATP by TR-FRET assay; assay type: cell-based; conditions: time 105.0 min
[22] = Toxicity in Wistar-Han rat assessed as effect on heart rate at 225 mg/kg, po administered as single dose and measured after 5 to 8 hrs by telemetric analysis; assay type: organism-based; conditions: in vivo, time 5-8 hrs
[23] = AUC in rhesus monkey at 800 mg/kg, po administered once daily for 7 days; assay type: ADME, organism-based, Macaca mulatta; set-up: time 7 day, dose 800 mg/kg, route po; conditions: in vivo
[24] = Toxicity in Wistar-Han rat assessed as effect on spontaneous locomotor activity at 225 mg/kg, po administered as single dose and measured upto 24 hrs by telemetric analysis; assay type: organism-based; conditions: in vivo
[25] = Mutagenicity in Salmonella typhimurium TA1535 at 30 to 5000 ug/plate incubated for 48 hrs in absence of Wistar-Han rat S9 fraction by Ames test; assay type: toxicity; conditions: salmonella enterica subsp. enterica serovar typhimurium, s9, 48 h
[26] = biological target: Voltage-gated inwardly rectifying potassium channel KCNH2 (Homo sapiens, UniProt Q12809); experiment: Inhibition of hERG expressed in CHO cells by QPatch voltage clamp assay
[27] = Cardiotoxicity in guinea pig assessed as effect on heart rate at 5 to 20 mg/kg, iv administered continuously for 20 min by ECG analysis; assay type: toxicity, organism-based, Cavia porcellus; conditions: in vivo, dose 5-20 mg/kg
[28] = biological target: Leucine-rich repeat serine/threonine-protein kinase 2 (Homo sapiens, UniProt Q5S007, G2019S); experiment: Inhibition of recombinant N-terminal GST-fused LRRK2 […] mutant (970 to 2527 residues) (unknown origin) using LRRKtide peptide as substrate assessed as inhibition of substrate phosphorylation preincubated with compound for 15 mins followed by substrate addition and measured after 90 mins in presence of ATP by TR-FRET assay
[29] = Toxicity in Wistar-Han rat assessed as effect on arterial pulse pressure at 225 mg/kg, po administered as single dose and measured upto 24 hrs by telemetric analysis; assay type: organism-based; conditions: in vivo
[30] = Protein binding in rhesus monkey plasma incubated for 4 hrs by equilibrium dialysis method; assay type: ADME, cell-free, Macaca mulatta; conditions: read-out: PPB (converted)
[31] = Toxicity in Wistar-Han rat assessed as clinical observations at 750 mg/kg, po administered once daily for 7 days; assay type: organism-based; conditions: in vivo, 168 h, time 7 day
[32] = Mutagenicity in Salmonella typhimurium TA100 at 30 to 5000 ug/plate incubated for 48 hrs in presence of Wistar-Han rat S9 fraction by Ames test; assay type: toxicity, subcellular; conditions: salmonella enterica subsp. enterica serovar typhimurium, s9, 48 h
[33] = AUC in Wistar-Han rat at 40 mg/kg, po administered once daily for 7 days; assay type: ADME, organism-based; set-up: dose 40 mg/kg, time 7 day, route po; conditions: in vivo
[34] = MRT in rhesus monkey at 3 mg/kg, iv measured after 24 hrs by LC-MS/MS analysis; assay type: ADME, organism-based, Macaca mulatta; conditions: in vivo
[35] = Mutagenicity in Salmonella typhimurium TA98 at 30 to 5000 ug/plate incubated for 48 hrs in absence of Wistar-Han rat S9 fraction by Ames test; assay type: toxicity; conditions: salmonella enterica subsp. enterica serovar typhimurium, s9, 48 h
[36] = MRT in Wistar-Han rat at 3 mg/kg, iv measured after 24 hrs by LC-MS/MS analysis; assay type: ADME, organism-based; conditions: in vivo

Sequence of Leucine-rich repeat serine/threonine-protein kinase 2 (Homo sapiens) (Q5S007 whole entry): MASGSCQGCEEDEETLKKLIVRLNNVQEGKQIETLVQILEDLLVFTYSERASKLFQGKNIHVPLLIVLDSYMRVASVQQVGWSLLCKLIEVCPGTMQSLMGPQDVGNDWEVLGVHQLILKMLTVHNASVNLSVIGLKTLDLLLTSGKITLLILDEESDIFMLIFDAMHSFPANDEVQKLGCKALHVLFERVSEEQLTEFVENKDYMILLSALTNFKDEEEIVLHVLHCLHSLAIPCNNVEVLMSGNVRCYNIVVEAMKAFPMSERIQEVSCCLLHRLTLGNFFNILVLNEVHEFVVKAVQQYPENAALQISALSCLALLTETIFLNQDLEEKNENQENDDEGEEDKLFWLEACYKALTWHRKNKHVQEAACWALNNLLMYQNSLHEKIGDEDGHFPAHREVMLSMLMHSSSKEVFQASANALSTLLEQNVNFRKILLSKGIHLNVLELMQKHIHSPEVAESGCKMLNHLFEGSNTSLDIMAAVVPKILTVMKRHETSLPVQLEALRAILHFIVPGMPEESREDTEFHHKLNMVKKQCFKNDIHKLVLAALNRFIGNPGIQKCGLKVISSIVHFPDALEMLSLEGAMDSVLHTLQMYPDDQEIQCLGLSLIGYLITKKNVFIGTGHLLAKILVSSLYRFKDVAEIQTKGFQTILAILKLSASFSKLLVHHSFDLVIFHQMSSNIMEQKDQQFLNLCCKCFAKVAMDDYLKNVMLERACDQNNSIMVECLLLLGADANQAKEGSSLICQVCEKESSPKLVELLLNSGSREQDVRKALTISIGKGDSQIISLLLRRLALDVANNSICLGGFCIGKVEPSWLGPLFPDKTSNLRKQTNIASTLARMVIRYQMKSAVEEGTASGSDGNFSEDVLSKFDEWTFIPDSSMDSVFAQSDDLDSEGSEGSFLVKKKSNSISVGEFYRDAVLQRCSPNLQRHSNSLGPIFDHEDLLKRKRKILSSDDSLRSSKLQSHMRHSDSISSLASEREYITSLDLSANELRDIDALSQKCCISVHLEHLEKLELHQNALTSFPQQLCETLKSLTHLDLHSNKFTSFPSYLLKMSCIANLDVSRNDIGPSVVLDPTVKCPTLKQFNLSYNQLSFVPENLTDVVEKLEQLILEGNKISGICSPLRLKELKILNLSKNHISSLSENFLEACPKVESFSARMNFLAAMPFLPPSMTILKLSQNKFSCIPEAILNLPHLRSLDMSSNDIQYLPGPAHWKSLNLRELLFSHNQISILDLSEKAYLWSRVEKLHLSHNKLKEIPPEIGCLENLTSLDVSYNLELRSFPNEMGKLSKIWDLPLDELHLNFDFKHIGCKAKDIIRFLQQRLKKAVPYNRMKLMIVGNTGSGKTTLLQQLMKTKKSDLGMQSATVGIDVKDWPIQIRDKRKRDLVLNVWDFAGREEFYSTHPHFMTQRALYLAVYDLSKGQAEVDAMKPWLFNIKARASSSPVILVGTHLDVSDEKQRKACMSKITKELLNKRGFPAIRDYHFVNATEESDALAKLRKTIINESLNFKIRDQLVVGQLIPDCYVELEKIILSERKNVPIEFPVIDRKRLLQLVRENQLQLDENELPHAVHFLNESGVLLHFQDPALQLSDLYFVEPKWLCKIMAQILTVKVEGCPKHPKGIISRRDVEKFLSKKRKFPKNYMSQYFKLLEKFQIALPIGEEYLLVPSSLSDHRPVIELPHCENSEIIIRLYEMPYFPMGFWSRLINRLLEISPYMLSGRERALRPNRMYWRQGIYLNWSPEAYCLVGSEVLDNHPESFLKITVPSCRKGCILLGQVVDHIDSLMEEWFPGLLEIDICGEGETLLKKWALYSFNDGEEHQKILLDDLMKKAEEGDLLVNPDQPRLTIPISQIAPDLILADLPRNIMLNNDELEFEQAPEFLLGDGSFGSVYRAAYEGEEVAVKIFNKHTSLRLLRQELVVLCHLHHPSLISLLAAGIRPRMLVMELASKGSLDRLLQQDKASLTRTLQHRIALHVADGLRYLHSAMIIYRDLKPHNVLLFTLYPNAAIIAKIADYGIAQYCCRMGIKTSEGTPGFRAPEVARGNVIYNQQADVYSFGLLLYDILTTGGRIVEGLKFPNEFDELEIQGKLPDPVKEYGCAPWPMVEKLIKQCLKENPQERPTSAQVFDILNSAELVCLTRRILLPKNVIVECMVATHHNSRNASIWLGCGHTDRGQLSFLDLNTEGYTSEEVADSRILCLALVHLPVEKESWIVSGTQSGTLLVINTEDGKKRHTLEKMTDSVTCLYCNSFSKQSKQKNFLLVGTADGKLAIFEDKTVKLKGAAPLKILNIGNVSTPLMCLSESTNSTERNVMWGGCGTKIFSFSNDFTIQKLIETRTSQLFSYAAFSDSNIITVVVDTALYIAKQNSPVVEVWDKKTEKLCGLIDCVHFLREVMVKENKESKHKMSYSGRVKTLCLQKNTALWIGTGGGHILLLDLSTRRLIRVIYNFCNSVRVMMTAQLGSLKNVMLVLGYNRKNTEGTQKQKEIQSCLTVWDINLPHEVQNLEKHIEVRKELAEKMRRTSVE
Sequence of Leucine-rich repeat serine/threonine-protein kinase 2 (Q5S007 whole entry G2019S, the tested form may be a part): as the sequence (Q5S007 whole entry) above, with G2019S counted along it
Sequence of KCNQ1/KCNE1 (IKs, Kv7.1/MinK) (P51787 whole entry): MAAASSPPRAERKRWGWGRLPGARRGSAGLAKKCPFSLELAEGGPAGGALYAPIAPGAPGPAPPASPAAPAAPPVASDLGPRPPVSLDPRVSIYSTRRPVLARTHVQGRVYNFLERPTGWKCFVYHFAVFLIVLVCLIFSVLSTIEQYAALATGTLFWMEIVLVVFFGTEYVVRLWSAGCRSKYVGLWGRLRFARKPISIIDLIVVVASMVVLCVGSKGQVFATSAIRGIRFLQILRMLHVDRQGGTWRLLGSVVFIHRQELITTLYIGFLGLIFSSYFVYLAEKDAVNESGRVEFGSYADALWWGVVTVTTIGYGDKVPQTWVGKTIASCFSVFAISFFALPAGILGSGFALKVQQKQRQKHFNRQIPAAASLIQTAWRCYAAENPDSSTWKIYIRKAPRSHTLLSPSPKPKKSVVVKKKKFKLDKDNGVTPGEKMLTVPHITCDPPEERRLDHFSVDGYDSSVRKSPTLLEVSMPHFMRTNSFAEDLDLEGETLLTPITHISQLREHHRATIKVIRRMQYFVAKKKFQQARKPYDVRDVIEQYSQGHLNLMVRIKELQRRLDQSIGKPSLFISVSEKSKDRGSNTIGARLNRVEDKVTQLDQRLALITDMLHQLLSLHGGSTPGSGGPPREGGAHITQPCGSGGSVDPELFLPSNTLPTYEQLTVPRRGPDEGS
Sequence of Voltage-gated inwardly rectifying potassium channel KCNH2 (Q12809 whole entry): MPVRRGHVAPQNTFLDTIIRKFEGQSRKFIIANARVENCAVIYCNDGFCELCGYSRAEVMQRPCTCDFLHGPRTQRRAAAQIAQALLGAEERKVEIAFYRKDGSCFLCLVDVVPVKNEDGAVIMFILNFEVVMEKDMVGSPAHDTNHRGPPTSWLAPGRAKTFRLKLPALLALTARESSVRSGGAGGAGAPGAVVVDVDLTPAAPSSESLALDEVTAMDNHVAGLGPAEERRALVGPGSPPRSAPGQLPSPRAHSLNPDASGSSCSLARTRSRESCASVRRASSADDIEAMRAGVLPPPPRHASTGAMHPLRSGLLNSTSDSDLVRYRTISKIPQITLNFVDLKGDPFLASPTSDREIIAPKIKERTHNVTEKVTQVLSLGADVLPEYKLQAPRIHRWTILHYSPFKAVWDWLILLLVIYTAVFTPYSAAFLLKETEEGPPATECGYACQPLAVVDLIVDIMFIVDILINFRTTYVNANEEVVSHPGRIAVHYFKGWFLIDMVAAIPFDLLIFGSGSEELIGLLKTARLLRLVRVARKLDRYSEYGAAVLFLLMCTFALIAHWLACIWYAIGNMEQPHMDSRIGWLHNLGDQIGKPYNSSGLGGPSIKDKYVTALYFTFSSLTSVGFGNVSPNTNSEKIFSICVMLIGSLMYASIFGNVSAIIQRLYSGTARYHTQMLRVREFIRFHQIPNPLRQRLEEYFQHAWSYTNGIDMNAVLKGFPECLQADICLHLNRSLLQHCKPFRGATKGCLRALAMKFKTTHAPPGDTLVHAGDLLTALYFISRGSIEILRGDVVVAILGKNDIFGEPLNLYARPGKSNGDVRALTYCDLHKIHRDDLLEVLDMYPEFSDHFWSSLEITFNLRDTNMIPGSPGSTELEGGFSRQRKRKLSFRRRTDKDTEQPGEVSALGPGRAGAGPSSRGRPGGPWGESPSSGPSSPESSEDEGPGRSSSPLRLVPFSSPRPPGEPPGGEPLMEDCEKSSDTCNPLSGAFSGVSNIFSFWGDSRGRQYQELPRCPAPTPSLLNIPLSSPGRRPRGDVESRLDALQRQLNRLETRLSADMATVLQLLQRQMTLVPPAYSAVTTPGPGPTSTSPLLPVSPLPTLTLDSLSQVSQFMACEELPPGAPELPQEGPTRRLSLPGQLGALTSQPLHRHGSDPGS

C[C@@]1(N2CCN(c3cc4cc(NC(=O)[C@H]5CC56CCOCC6)ncc4cc3Cl)CC2)COC[C@@H]1O
Activity [1]: Non-Toxic
CL [2]: 1435 mL/min/kg
Activity [3]: Non-Toxic
efflux ratio at 3 h (rat Mdrl1 P-gp): 2.1
solubility kinetic at 24 h [4]: 6 µM (≈ 3.01 µg/mL)
fraction unbound at 4 h [5]: 0.115
Cp(f) [6]: 1.29 µM
inhibition at 10 µM (hERG): 15%
clearance [7]: 56 mL/min/kg
Activity [8]: Non-Toxic
fIC50 [9]: 4.7 nM
MRT [10]: 29 h
clearance [11]: 22 mL/min/kg
Activity [12]: Non-Toxic
inhibition at 30 µM [13]: 18%
Cmax [14]: 750 nM
inhibition (Rattus norvegicus): Dose-Dependent Effect
AUC at 168 h [15]: 14 µM·h
Activity [16]: Non-Toxic
CL [17]: 736 mL/min/kg
fraction unbound at 4 h [18]: 0.131
Cp(f) [19]: 5.69 µM
Activity [20]: Toxic
fIC50 [21]: 2.8 nM
Activity [22]: Toxic
AUC at 168 h [23]: 63 µM·h
Activity [24]: Non-Toxic
Activity [25]: Non-Toxic
IC50 [26]: > 60 µM
Activity [27]: Non-Toxic
IC50 [28]: 0.4 nM
Activity [29]: Non-Toxic
fraction unbound at 4 h [30]: 0.12
Activity [31]: Non-Toxic
Activity [32]: Non-Toxic
AUC at 168 h [33]: 8.1 µM·h
MRT [34]: 3.6 h
Activity [35]: Non-Toxic
MRT [36]: 2.2 h
